Assay results: PMC3108859 (Toxicology and applied pharmacology, 2009)
Entries after “also recorded” stand apart in the source; their conditions may differ.

How the values were obtained:
[1] = test system: rat hepatocyte-Kupffer cell co-culture; conditions: ref Tukov et al., 2006; cited from earlier work
[2] = test system: primary human hepatocytes; assay: Quantitative sub-lethal hepatotoxicity imaging assays; assay type: cell-based; conditions: absence of cytokines, 24 or 48 hours
[3] = test system: primary human hepatocytes; assay type: cell-based; conditions: no cytokines, 24 hr, doses less than each drug's own 100*Cmax
[4] = test system: primary human hepatocytes; assay type: cell-based; conditions: 24 hours post-treatment

## CN(C)CCCN1c2ccccc2Sc2ccc(Cl)cc21 [chlorpromazine]
[1]
  synergistic induction of hepatocellular death following LPS treatment: synergistic induction of hepatocellular death following LPS treatment

## CC[C@H]1OC(=O)[C@H](C)[C@@H](O[C@H]2C[C@@](C)(OC)[C@@H](O)[C@H](C)O2)[C@H](C)[C@@H](O[C@@H]2O[C@H](C)C[C@H](N(C)C)[C@H]2O)[C@](C)(OC)C[C@@H](C)C(=O)[C@H](C)[C@@H](O)[C@]1(C)O [clarithromycin]
[2]
  drug-induced sub-lethal hepatocyte injuries (lipid content, ROS, MtMP, GSH depletion): numerous sub-lethal hepatotoxicities

## CCc1nn(CCCN2CCN(c3cccc(Cl)c3)CC2)c(=O)n1CCOc1ccccc1 [nefazodone]
[2]
  drug-induced sub-lethal hepatocyte injuries (lipid content, ROS, MtMP, GSH depletion): numerous sub-lethal hepatotoxicities

## C=C[C@H]1C[N@@]2CC[C@H]1C[C@H]2[C@H](O)c1ccnc2ccc(OC)cc12 [quinine]
[3]
  drug-only hepatotoxicity (greater than two-fold increase in LDH release): induced significant drug-only hepatotoxicity

## CC[C@H]1OC(=O)[C@H](C)C(=O)[C@H](C)[C@@H](O[C@@H]2O[C@H](C)C[C@H](N(C)C)[C@H]2O)[C@](C)(OC)C[C@@H](C)C(=O)[C@H](C)[C@H]2N(CCCCn3cnc(-c4cccnc4)c3)C(=O)O[C@]12C [telithromycin]
[2]
  drug-induced sub-lethal hepatocyte injuries (lipid content, ROS, MtMP, GSH depletion): only sub-lethal injury induced by both telithromycin and trovafloxacin that was statistically significant was MtMP depletion; also recorded: induced only one type of sub-lethal injury, mitochondrial membrane potential depletion
[4]
  cytokine synergy effects by factorial analysis of caspase 3/7 activity: evident, in decreasing magnitude, for LPS and IL-1α but not other treatment variables

## N[C@@H]1[C@H]2CN(c3nc4c(cc3F)c(=O)c(C(=O)O)cn4-c3ccc(F)cc3F)C[C@@H]12 [trovafloxacin]
[2]
  drug-induced sub-lethal hepatocyte injuries (lipid content, ROS, MtMP, GSH depletion): only sub-lethal injury induced by both telithromycin and trovafloxacin that was statistically significant was MtMP depletion; also recorded: induced only one type of sub-lethal injury, mitochondrial membrane potential depletion
[4]
  cytokine synergy effects by factorial analysis of caspase 3/7 activity: evident, in decreasing magnitude, for LPS and IL-1α but not other treatment variables
